Data: the supplement of paper PMC11061612

How the values were obtained:
[1] = compound: O=C(Nc1ccc2[nH]nc(-c3ccncc3)c2c1)[C@@H]1CCN(CC(=O)N2CCN(c3ccc(-c4ncccn4)cc3)CC2)C1; details: max 5 µM
Summary of the method: (§1)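 Cancer cell lines in 1536-well plates (7.5 μl DMEM/F12 or RPMI, 10% FBS) were held 24 hours at 37°C and 5% CO2 and then dosed for 72 hours at a final DMSO of typically 0.2%. Viability was taken from CellTiter-Glo 2.0 luminescence, scaled between blank-well and DMSO-well means. Curves were fitted as two-parameter logistic models with a non-linear mixed effects model, from which the single-agent IC50 was taken.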

[2] = compound: Cc1nc(-c2cn3c(n2)-c2ccc(-c4cnn(C(C)(C)C(N)=O)c4)cc2OCC3)n(C(C)C)n1 [Taselisib]; details: max 10 µM
Summary of the method: as §1

[3] = compound: O=C(c1cc(Cc2n[nH]c(=O)c3ccccc23)ccc1F)N1CCN(C(=O)C2CC2)CC1 [Olaparib]; details: max 10 µM
Summary of the method: as §1

[4] = compound: COc1cc([C@@H]2c3cc4c(cc3[C@@H](O[C@@H]3O[C@@H]5CO[C@@H](C)O[C@H]5[C@H](O)[C@H]3O)[C@H]3COC(=O)[C@H]23)OCO4)cc(OC)c1O [Etoposide]; details: max 10 µM
Summary of the method: as §1

[5] = compound: C=CCn1c(=O)c2cnc(Nc3ccc(N4CCN(C)CC4)cc3)nc2n1-c1cccc(C(C)(C)O)n1 [AZD1775]; details: max 1 µM
Summary of the method: as §1

[6] = compound: CC(C)n1c(=O)n(C)c2cnc3cc(F)c(-c4ccc(OCCCN5CCCCC5)nc4)cc3c21 [AZD1390]; details: max 0.3 µM
Summary of the method: as §1

[7] = compound: COc1cc2ncnc(Nc3ccc(F)c(Cl)c3)c2cc1OCCCN1CCOCC1 [Gefitinib]; details: max 10 µM
Summary of the method: as §1

[8] = compound: C1CN(CCC1(C(=O)N[C@@H](CCO)C2=CC=C(C=C2)Cl)N)C3=NC=NC4=C3C=CN4 [Capivasertib]; details: max 10 µM
Summary of the method: as §1

[9] = compound: N#Cc1cnc(Nc2cc(NC[C@H]3CNCCO3)c(C(F)(F)F)cn2)cn1 [SRA737]; details: max 10 µM
Summary of the method: as §1

[10] = compound: CC(=O)Nc1cccc(-n2c(=O)n(C3CC3)c(=O)c3c(Nc4ccc(I)cc4F)n(C)c(=O)c(C)c32)c1 [Trametinib]; details: max 1 µM
Summary of the method: as §1

[11] = compound: CCc1c2c(nc3ccc(O)cc13)-c1cc3c(c(=O)n1C2)COC(=O)[C@]3(O)CC [SN-38]; details: max 0.3 µM
Summary of the method: as §1

[12] = compound: C1CC(C1)(C(=O)[O-])C(=O)[O-].N.N.[Pt+2] [Carboplatin]; details: max 10 µM
Summary of the method: as §1

[13] = compound: COc1cc(Nc2ncc3c(n2)-c2ccc(Cl)cc2C(c2c(F)cccc2OC)=NC3)ccc1C(=O)O [Alisertib]; details: max 10 µM
Summary of the method: as §1

[14] = compound: C[C@@H](c1ccc2nccn2c1)n1nnc2ncc(-c3cnn(C)c3)nc21 [Savolitinib]; details: max 1 µM
Summary of the method: as §1

[15] = compound: CC(=O)c1c(C)c2cnc(Nc3ccc(N4CCNCC4)cn3)nc2n(C2CCCC2)c1=O [Palbociclib]; details: max 10 µM
Summary of the method: as §1

[16] = compound: NC1(c2ccc(-c3nc4ccn5c(=O)[nH]nc5c4cc3-c3ccccc3)cc2)CCC1 [MK-2206]; details: max 10 µM
Summary of the method: as §1

[17] = compound: O=c1[nH]cc(F)c(=O)[nH]1 [5-Fluorouracil]; details: max 20 µM
Summary of the method: as §1

[18] = compound: C[C@@H](Oc1cc(-c2cnn(C3CCNCC3)c2)cnc1N)c1c(Cl)ccc(F)c1Cl [Crizotinib]; details: max 10 µM
Summary of the method: as §1

[19] = compound: CS(=O)(=O)CCNCc1ccc(-c2ccc3ncnc(Nc4ccc(OCc5cccc(F)c5)c(Cl)c4)c3c2)o1 [Lapatinib]; details: max 10 µM
Summary of the method: as §1

[20] = compound: Cc1cc2ncnn2cc1Nc1ncc2c(n1)n(C1CCOCC1)c(=O)n2C [AZD7648]; details: max 10 µM
Summary of the method: as §1

[21] = compound: C[C@@H](Nc1cc(F)cc(F)c1)c1cc(C(=O)N(C)C)cc2c(=O)cc(N3CCOCC3)oc12 [AZD8186]; details: max 3 µM
Summary of the method: as §1

[22] = compound: CCN(CCO)CCCOc1ccc2c(Nc3cc(CC(=O)Nc4cccc(F)c4)[nH]n3)ncnc2c1 [AZD2811]; details: max 1 µM
Summary of the method: as §1

[23] = compound: CC1(C)CCC(CN2CCN(c3ccc(C(=O)NS(=O)(=O)c4ccc(NCC5CCOCC5)c([N+](=O)[O-])c4)c(Oc4cnc5[nH]ccc5c4)c3)CC2)=C(c2ccc(Cl)cc2)C1 [Venetoclax]; details: max 1 µM
Summary of the method: as §1

[24] = compound: CN(C)CCCOc1ccc(-c2ccc3ncc4c(c3c2)n(C2CCOCC2)c(=O)n4C)cn1 [AZD0156]; details: max 1 µM
Summary of the method: as §1

[25] = compound: Nc1ccn([C@@H]2O[C@H](CO)[C@@H](O)C2(F)F)c(=O)n1 [Gemcitabine]; details: max 0.3 µM
Summary of the method: as §1

[26] = compound: C[C@@H]1COCCN1C2=NC(=NC(=C2)C3(CC3)[S@](=N)(=O)C)C4=C5C=CNC5=NC=C4 [AZD6738]; details: max 10 µM
Summary of the method: as §1

[27] = compound: COc1nnc2ccc(N3CCC(c4ccc(OCCN5CCN(C)C(=O)[C@H]5C)cc4)CC3)nn12 [AZD5153]; details: max 1 µM
Summary of the method: as §1

[28] = compound: COc1cccc(OCCCN)c1-c1cc(Nc2cnc(C#N)cn2)n[nH]1 [Prexasertib]; details: max 1 µM
Summary of the method: as §1

[29] = compound: Cn1cnc2c(F)c(Nc3ccc(Br)cc3Cl)c(C(=O)NOCCO)cc21 [Selumetinib]; details: max 10 µM
Summary of the method: as §1

[30] = compound: Cc1c2c(nn1C)CSCc1cc(n(C)n1)CSc1cc(c3ccccc3c1)OCCCc1c(C(=O)O)n(C)c3c-2c(Cl)ccc13 [AZD5991]; details: max 1 µM
Summary of the method: as §1

[31] = compound: CC1=C(C(=CC=C1)Cl)NC(=O)C2=CN=C(S2)NC3=CC(=NC(=N3)C)N4CCN(CC4)CCO [Dasatinib]; details: max 2 µM
Summary of the method: as §1

[32] = compound: CC1=CN2[C@@H](C1)C=NC3=CC(=C(C=C3C2=O)OC)OCCCCCOC4=C(C=C5C(=C4)N=C[C@@H]6CC(=CN6C5=O)C)OC [SG3199]; details: max 0.001 µM
Summary of the method: as §1

[33] = compound: COc1cccc2c1C(=O)c1c(O)c3c(c(O)c1C2=O)C[C@@](O)(C(=O)CO)C[C@@H]3O[C@H]1C[C@H](N)[C@H](O)[C@H](C)O1 [Doxorubicin]; details: max 1 µM
Summary of the method: as §1

[34] = compound: CN(CC[C@H](CSC1=CC=CC=C1)NC2=C(C=C(C=C2)S(=O)(=O)NC(=O)C3=CC=C(C=C3)N4CCC(CC4)[C@H](C5=CC=CC=C5C6=CC=C(C=C6)Cl)O)S(=O)(=O)C(F)(F)F)CCO [AZD4320]; details: max 1 µM
Summary of the method: as §1

NB13 (Neuroblastoma)
IC50, cell viability 72 h [1]: > 5 µM | IC50, cell viability 72 h [2]: > 10 µM | IC50, cell viability 72 h [3]: > 10 µM | IC50, cell viability 72 h [4]: 2.43 µM | IC50, cell viability 72 h [5]: 0.322 µM | IC50, cell viability 72 h [6]: > 0.3 µM | IC50, cell viability 72 h [7]: > 10 µM | IC50, cell viability 72 h [8]: > 10 µM | IC50, cell viability 72 h [9]: 3.64 µM | IC50, cell viability 72 h [10]: > 1 µM | IC50, cell viability 72 h [11]: 0.0137 µM | IC50, cell viability 72 h [12]: > 10 µM | IC50, cell viability 72 h [13]: 0.244 µM | IC50, cell viability 72 h [14]: > 1 µM | IC50, cell viability 72 h [15]: > 10 µM | IC50, cell viability 72 h [16]: > 10 µM | IC50, cell viability 72 h [17]: > 20 µM | IC50, cell viability 72 h [18]: 3.97 µM | IC50, cell viability 72 h [19]: > 10 µM | IC50, cell viability 72 h [20]: > 10 µM | IC50, cell viability 72 h [21]: > 3 µM | IC50, cell viability 72 h [22]: > 1 µM | IC50, cell viability 72 h [23]: > 1 µM | IC50, cell viability 72 h [24]: > 1 µM | IC50, cell viability 72 h [25]: > 0.3 µM | IC50, cell viability 72 h [26]: 2.22 µM | IC50, cell viability 72 h [27]: 0.953 µM | IC50, cell viability 72 h [28]: 0.0159 µM | IC50, cell viability 72 h [29]: > 10 µM | IC50, cell viability 72 h [30]: > 1 µM | IC50, cell viability 72 h [31]: > 2 µM | IC50, cell viability 72 h [32]: > 0.001 µM | IC50, cell viability 72 h [33]: 0.194 µM | IC50, cell viability 72 h [34]: 0.139 µM
